Laboratory results from US20250320299A1, “BISPECIFIC DENDRITIC CELL ENGAGER AND USES THEREOF” (OBI PHARMA, INC., priority 2021, published 2025).

T1: human CRT-ECD protein (OBI Pharma Inc., in-house produced) (human, UniProt P27797 18-417, limits assumed)
T1 construct: extracellular domain; Coated at 200 ng per well for ELISA; also called calreticulin
T1 sequence (looked up): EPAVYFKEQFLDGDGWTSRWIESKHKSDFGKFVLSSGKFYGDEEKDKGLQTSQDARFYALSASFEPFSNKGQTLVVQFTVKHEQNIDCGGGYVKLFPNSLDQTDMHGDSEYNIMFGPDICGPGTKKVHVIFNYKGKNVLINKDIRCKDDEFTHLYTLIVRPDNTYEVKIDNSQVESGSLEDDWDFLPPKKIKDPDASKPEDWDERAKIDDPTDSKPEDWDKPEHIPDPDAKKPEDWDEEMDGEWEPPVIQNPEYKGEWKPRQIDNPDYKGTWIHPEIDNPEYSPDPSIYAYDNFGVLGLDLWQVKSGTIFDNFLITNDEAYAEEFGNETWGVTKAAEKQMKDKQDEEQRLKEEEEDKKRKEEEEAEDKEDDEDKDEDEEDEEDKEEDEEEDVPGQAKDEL


How the values were obtained:
[1] = tested on: Mouse 4T1 breast cancer cells; assay: Exposure of endogenous danger signals (surface CRT, Hsp70) on tumor cells, flow cytometry; format: cell-based; conditions: 100 μM Oxaliplatin for two days
[2] = tested on: Mouse 4T1 breast cancer cells; assay: ATP release to supernatant, CellTiter-Glo Luminescent Assay; format: cell-based; conditions: 100 μM Oxaliplatin for two days
Method: Furthermore, supernatants were collected and centrifuged then the ATP in the supernatant was determined by CellTiter-Glo® Luminescent Assay (Promega, Cat #G7570). Briefly, an equal volume of the collected supernatants and reagent were mixed and incubated in the dark for 10 minutes at room temperature. The luminescence was determined by a luminometer (MolecularDevice, SpectraMax L).

[3] = tested on: Mouse Pan T cells with co-cultured MutuDC 1940 cells and 4T1 cells; assay: T cell proliferation primed by dendritic cell loaded with tumor cell; format: cell-based; conditions: DCs cocultured with 4T1 cells treated with 100 μM Oxaliplatin, T cells 72 hours
Method: Then, cells were collected and counted. […] Cells were washed and counted. 5-fold Far Red labeled mouse Pan T cells were added to the co-cultured MutuDC 1940 cells and 4T1 cells for another 72 hours. […] Another CD8^+T-cell proliferation was calculated by gating on CD3^+/CD4^− cells and setting a marker that contained at least 98% of cells in unstimulated samples.

4T1 breast cancer cells = conditions: Oxaliplatin 5 mg/kg intravenous, BsAb 20 μg intratumor, days 7, 13 and 20; sacrificed Day 27
Method: 1×10^5 4T1 breast cancer cells was injected through subcutaneous injection (s.c. injection) on the right flank of mice in 100 μL sterile PBS. Five mice of each were randomized into three treatment groups on day 7 following tumor inoculation when the tumor size reached 50 mm^3. […] Tumor length, and width were recorded weekly. Tumor volumes were calculated using the formula: volume (mm^3)=([width]^2×length)/2. Results were shown as arithmetic meantstandard error of the mean (SEM). Statistical comparisons were performed by two-tailed Student's t-test. Significance set of probability “p” was set as the level at *p<0.05, **p<0.01, ***, p<0.001. […] Mice were sacrificed at Day 27.

[4] = tested on: MutuDC 1940 cells and 4T1 cells; assay: Dendritic cell-mediated phagocytosis of tumor cell; conditions: 4T1 cells treated with 100 μM Oxaliplatin for two days; untreated 31.03%
Method: Mouse 4T1 breast cancer cells were labeled with CellTrace™ Far Red staining solution (ThermoFisher, Cat #C34564) at 37° C. for 30 minutes and then washed with PBS. Cells were seeded overnight in a 6-well plate. After cultivating overnight, cells were treated or not with 100 μM Oxaliplatin for two days. Then, cells were collected and counted. An equal number of MutuDC 1940 cells and 4T1 cells were mixed and incubated at 37° C. for the indicated time. After treatment, cells were collected and stained with anti-mouse CD11c-BV421 (Biolegend, Cat #117330) antibody at 4° C. for 30 minutes. Cells were washed and centrifuged, then analyzed by FACS CANTOII. 4T1 cell incorporation in MutuDC 1940 cells evaluated as the percentage of CD11c positive for far-red fluorescence incorporation.

[5] = tested on: oxaliplatin treated 4T1 cells; assay: Cell binding assay (FACS) on oxaliplatin treated tumor cells; design: species or system mouse; conditions: 30 nM antibody
[6] = target: T1, human CRT-ECD protein (OBI Pharma Inc., …); assay: ELISA, antigen coated at 200 ng per well, anti-mouse IgG-HRP detection

Molecule	surface Hsp70 on live 4T1 cells ([1]; untreated 3.2%) [%]	surface CRT on live 4T1 cells ([1]; untreated 6.5%) [%]	ATP released to the medium [2]	proliferation of CD8+ T-cells [3]	4T1 tumor growth versus control (4T1 breast cancer cells)	DC-mediated phagocytosis of 4T1 cells by MutuDC 1940 cells (percentage of CD11c positive for far-red) [4] [%]	binding activity on oxaliplatin treated 4T1 cells [5] [%]	EC50 [6] [nM]
O=C1[O][Pt]2([NH][C@@H]3CCCC[C@H]3[NH]2)[O]C1=O [Oxaliplatin]	11	59	increased	increased	no difference	43.3	–	–
α-CRT antibody 5B3-1 (OBI Pharma, Inc.) (antibody, V domains shown, also called Anti-CRT (5B3-1)) VH: EVQLVETGGGLVQPKGSLKLSCAASGFSFNNNAMNWVRQAPGKGLEWVARIRSKTNNYEIYYAESVKDRFTISRDDSQSMLYLQMNNLKTDDTAMYYCVRDYNHVGFVYWGQGTQVTVST VL: DIVMTQTTPSVPVTPGESVSISCRSSKSLLYSNGNTYLYWFLQRPGQSPQLLIYRMSNLASGVPDRFSGSGSGTAFTLRISRVEAEDVGVYYCMQHLEYPFTFGAGTKLELK	–	–	–	–	–	–	41.2	0.407
